Experimental data from patent publication US20120040389A1 (Institut National de la Sante et de la Recherche Medicale …, priority 2003, published 2012).

Tests used:
Bax protein = assay: Bax activation: retention of GFP-Bax fluorescence after digitonin permeabilization, flow cytometry; format: cell-based, human; details: clone 10; coupled test FL1 (GFP) / FL3 (DNA); FIG. 11
Description: (§1) FIG. 11A-E represents the coupled measurement of Bax activation and the cell cycle. The clone 10 cells stably expressing the GFP-Bax fusion protein are treated with various drugs acting as pro-apoptotic agents and/or cytostatic agents. The measurement of Bax activation is carried out as described previously by evaluation of the retention of fluorescence after permeabilization with digitonin. In the permeabilization buffer, propidium iodide (0.4-0.8 mg/ml) was added and the cells were incubated for 30 minutes at 4° C. The distribution of the cells in the various phases of the cell cycle is read on the basis of their intensity of fluorescence in the red (PI).
The model implemented uses a clone designated “clone 10”.
The test is then based on the observation, under the fluorescence microscope or by flow cytometry, of the cells in which Bax is not activated and thus is distributed uniformly in the cytosol and of the cells in which Bax has been activated following an induction of apoptosis. In the latter case, the fluorescent signal is aggregated around the mitochondria and the Bax protein is thus considered as “bound”.
The cells are then resuspended in an intracellular saline solution in the presence of 50 μM of digitonin and then analyzed by flow cytometry and the fluorescence of the GFP is measured in channel FL1.

clone 10 cells = assay: Cell cycle distribution by propidium iodide, coupled with the Bax activation test; format: cell-based, human; details: propidium iodide 0.4-0.8 mg/ml, 30 minutes at 4° C., FIG. 11
Description: as §1, with “(PI). […] Moreover, it makes it possible to evaluate if Bax activation takes place in a preferential phase of the cell cycle.” for “(PI).”
The measurement of the cell cycle can be carried out in a traditional way by adding to the permeabilized cell suspension a sufficient concentration of propidium iodide (0.4-0.8 mg/ml). The cells are incubated for 30 minutes to allow time for PI to become intercalated in the genomic DNA, and then analyzed using flow cytometry by simultaneously measuring “green” fluorescence (FL1=the recombinant biosensor signal based on GFP or another fluorescent protein emitting in the green range) and “red” fluorescence (FL3=the intensity of PI corresponding to the chromatin content of each cell, which enables the cell cycle to be read).

caspase 3 [1] = assay: Caspase 3 activation in a xenografted clone 23 tumor in nude mice, confocal microscopy; format: in vivo; details: mouse with xenografted clone 23 tumor; 40 mg/kg/day for 4 days; FIG. 12c
From the text: FIG. 12 represents the xenograft of lines expressing a fluorescent biosensor. a) Confocal microscopy image (10×) of a section of a solid tumor generated by a subcutaneous xenograft of clone 10 cells (stably expressing GFP-Bax) in nude mice. Marking of nuclei (Hoechst) and cells with activated Bax (GFP-Bax). On the right, the detail of a cell with GFP-Bax relocalized to the mitochondria (GFP-Bax) and corresponding nuclear marking (Hoechst). b) Confocal microscopy image (10×) of a section of a solid tumor generated by a subcutaneous xenograft of clone 23 cells (stably expressing the protein copGFP-DEVD-cb5TMD-RR) in nude mice. Marking of nuclei (Hoechst) and distribution of the biosensor (caspase 3 probe).
These lines (designated clone 10 and clone 23, respectively), injected subcutaneously in “nude” mice form solid fluorescent tumors after a few days.

caspase 3 [2] = assay: Cleavage and redistribution of caspase 3 probes, confocal and fluorescence microscopy; format: cell-based, human
Description: The quantification of cleavage and of the diffusion of the fluorescent signal in the cytosol is carried out by measuring the increase in the respectively green and red fluorescent signal in a region of the nucleus.
The quantification of the cleavage and of the diffusion of the fluorescent signal respectively from the nucleus to the cytosol for the protein H2B-DEVD-GFP and from the cytosol to the nucleus for the protein HcRed-DEVT-cb5 is carried out by measuring the increase in the fluorescent signal, respectively green in a cytosolic region of the cell and red in a region of the nucleus. e) Evaluation by flow cytometry of the functionality of the probe by quantification of the percentage of retention of fluorescence after permeabilization in a population of HeLa cells transfected transiently with the protein H2B-DEVD-GFP and its non-cleavable control.
The cells are cultivated on glass slides and transfected with the vector described previously; they are then mounted in a saline medium in an incubation chamber and observed under the fluorescence microscope. Before or during the observation, they are treated with the pro-apoptotic agent.

caspase 2 = assay: Distribution of nuclear-anchored caspase 2 probe in HeLa cells; format: cell-based, human; details: transiently transfected, 3 hours, untreated cells show nuclear distribution, FIG. 10e
From the text: Fusion proteins GFP-cb5TMRR and GFP-SNAP(80-136) were constructed which carry, in the linker connecting the fluorescent protein and the anchoring segment, the caspase 8 consensus sensing site (IETD) which is principal “initiating” pro-apoptotic caspase. In the same manner, a fusion protein GFP-H2B was constructed which contains, in the sequence linker, the caspase 2 consensus sensing sequence (VDVAD), which is a protease with nuclear localization. The sensing components thus used have as sequences SEQ ID No. 6 and 14 (for caspase 8), and SEQ ID No. 12 (for caspase 2). These proteins are cleavable and the quantification of the proteolytic activity can be carried out via cytometry as shown for caspase 3 (FIG. 10).

## COc1cccc2c1C(=O)c1c(O)c3c(c(O)c1C2=O)C[C@@](O)(C(C)=O)C[C@@H]3O[C@H]1C[C@H](N)[C@H](O)[C@H](C)O1 [daunorubicin]
Bax protein
  Bax activation in relation to the phase of the cell cycle: Bax activation in phase S
Clone 10 cells
  Effect on the cell cycle (distribution in phases G1, S, G2/M): accumulation in phase G2

## COc1cc([C@@H]2c3cc4c(cc3[C@@H](O[C@@H]3O[C@@H]5CO[C@@H](C)O[C@H]5[C@H](O)[C@H]3O)[C@H]3COC(=O)[C@H]23)OCO4)cc(OC)c1O [etoposide]
Caspase 3 [1]
  Caspase 3 activation in tumor cells (cytosolic distribution of fluorescence): appearance of cells having activated caspase 3

## CC[C@@]1(O)C(=O)OCc2c1cc1n(c2=O)Cc2cc3ccccc3nc2-1 [camptothecin]
Bax protein
  Bax activation in relation to the phase of the cell cycle: Bax activation preferentially in phase Gl
Clone 10 cells
  Effect on the cell cycle (distribution in phases G1, S, G2/M): blockage in phase S

## CN[C@@H]1C[C@H]2O[C@@](C)([C@@H]1OC)n1c3ccccc3c3c4c(c5c6ccccc6n2c5c31)C(=O)NC4 [staurosporine]
Bax protein
  Bax activation in relation to the phase of the cell cycle: induction of Bax activation in any phase of the cycle
Clone 10 cells
  Effect on the cell cycle (distribution in phases G1, S, G2/M): no effect on the cycle
Caspase 3 [2]; human HeLa cells, transiently co-transfected, confocal microscopy, FIG. 8e-f
  Cleavage of probes GFP-DEVD-ANT and HcRed-DEVD-Cb5RR: Release of the fluorescent protein in the cytosol following its cleavage
Caspase 3 [2]; human HeLa cells, transiently transfected, untreated cells show nuclear distribution, FIG. 9c
  Distribution of fluorescent protein H2B-DEVD-GFP: cytosolic distribution
Caspase 3 [2]; human SH-SY5Y neuroblastoma cells, transiently transfected, confocal microscopy, FIG. 7c
  Cleavage of probe GFP-DEVD-SNAP(80-136): Release of the fluorescent protein in the cytosol following its cleavage
Caspase 2
  Distribution of fluorescent protein GFP-IETD-H2B: cytosolic distribution

## CN[C@H]1CCc2cc(OC)c(OC)c(OC)c2-c2ccc(OC)c(=O)cc21 [colcemid]
Clone 10 cells
  Effect on the cell cycle (distribution in phases G1, S, G2/M): accumulation in phase G2
